Measured values: US20060019270A1, “Global DNA methylation assessment using bisulfite PCR” (Board of Regents The University of Texas System, priority 2004, published 2006)

Assays:
[1] = tested on: leukemia (AML/MDS, CML/CMML) patients; experiment: Clinical response in the High Dose and Low Dose decitabine studies; type: in vivo, human
Method: FIG. 6 illustrates treatment schema of patient samples. Patients were treated as part of a Phase II study of Decitabine which was given initially a dose of 90 mg/m2 twice daily for 5 consecutive days. This dose was later decreased to 50 mg/m2 twice daily due to toxicity. In this “High” Dose Study a total dose of 500-900 mg/m2 of decitabine was given over a 5 day period. Peripheral blood specimens were collected on day 0 or 1 prior to treatment, days 2-4 during treatment, and on days 5 or 6 after the completion of treatment. In the second study, a Phase I strategy of “Low” Dose Decitabine was used. This study was designed to take advantage of Decitabine's demethylating properties. Escalating doses of Decitabine of 5, 10, 15 and 20 mg/m2 were given as ten daily doses over a two week period. The total dose delivered was only 50 to 200 mg/m2 over a 14 day period. Peripheral blood specimens were collected on day 0 or 1 prior to treatment, and during days 2-14 of treatment;
Patient samples were collected from patients treated as part of two clinical studies using 5-aza-2′deoxycytidine (decitabine) as a single agent. The first study treated patients with 50-90 mg/m2 of decitabine twice daily for 5 consecutive days (See FIG. 8). The second study was a phase I study which attempted to capitalize on the demethylating properties of decitabine by using a lower dose of decitabine, 5-20 mg/m^2 once daily, for a longer period of time, 10 days over a two week period (See FIG. 8). Peripheral blood samples were collected prior to, during and after treatment. Donation of blood samples for laboratory studies was voluntary and […] were collected from 41 patients participating in both studies (See Table 4). Due to competing protocols and the availability of patients at the time of the two respective studies the majority of the patients enrolled on DM−, the “High-Dose” study were CML patients and the majority of the patients enrolled on DM−, the “Low-Dose” study were AML or High Risk MDS patients.
Donation of peripheral blood for laboratory analysis was voluntary, and only some of the patients enrolled on the two studies participated. A total of 134 samples were collected for analysis (52 in the High Dose Study and 82 in the Low Dose Study). The majority of patients treated in the High Dose Study were CML patients, however, the majority of patients treated in the Low Dose Study were AML or High risk MDS patients.

[2] = tested on: LINE-1 methylation in Hct116 cells; experiment: COBRA (HinfI) of LINE-1 PCR, Hct116 cells treated with DAC; type: cell-based, human; conditions: 5 μM DAC for three days, 77% prior to treatment
Method: (§1) Hct116, RKO and SW48, colon cancer cell lines (American Type Culture Collection, Manassas, Va.), were cultured using standard methods. Cells were treated with 5 μM 5-aza-2′deoxycytidine (DAC) for three days prior to being harvested. DNA from cell lines and peripheral blood leukocytes was extracted using phenol-chloroform extraction methods well known to one with skill on the art.
Bisulfite modification of genomic DNA is known in the art (see Clark et. al, 1994). In brief, 1.5 μg prepared 10 mM hydroquinone (Sigma) and 520 μl of 3M Sodium Bisulfite (Sigma) at pH=5.0 were added and mixed. The samples were overlayed with mineral oil to prevent evaporation and incubated at 50° C. for 16 hours. The bisulfite treated DNA was isolated using Wizard DNA Clean-Up System (Promega). The DNA was eluted by 50 μl of warm water and 5.5 μl of 3M NaOH were added for 5 minutes. The DNA was ethanol precipitated with glycogen as a carrier and resuspended in 20 μl water. Bisulfite treated DNA was stored at −20° C. until ready for use. […]
In order to test whether Alu element […] LINE-1 methylation could approximate global methylation, COBRA, restriction digestion of the repetitive element PCR product, was used to quantitate DNA methylation in cell lines treated with 5-aza-2′deoxycytidine (DAC) (FIG. 3). […] Thus both assays reliably detected inhibition of methylation induced by DAC. […]

[3] = tested on: Alu element methylation in SW48 cells; experiment: COBRA (MboI) of Alu repetitive element PCR, SW48 cells treated with DAC; type: cell-based, human; conditions: 5 μM DAC for three days, decrease from 28%
Method: as §1
Bisulfite modification of genomic DNA is known in the art (see Clark et. al, 1994). In brief, 1.5 μg prepared 10 mM hydroquinone (Sigma) and 520 μl of 3M Sodium Bisulfite (Sigma) at pH=5.0 were added and mixed. The samples were overlayed with mineral oil to prevent evaporation and incubated at 50° C. for 16 hours. […] Bisulfite treated DNA was stored at −20° C. until ready for use.
Methylation analysis of Alu repetitive elements was performed initially by the COBRA assay. […] The digested PCR product was then separated by polyacrylamide gel electrophoresis or the PCR products were quantitated using a capillary electrophoresis system, an Agilent 2100 Bioanalyzer (Agilent Technologies, Palo Alto, Calif.).
In order to test whether Alu element […] LINE-1 methylation could approximate global methylation, COBRA, restriction digestion of the repetitive element PCR product, was used to quantitate DNA methylation in cell lines treated with 5-aza-2′deoxycytidine (DAC) (FIG. 3). […]

[4] = Total of both studies, 41 patients

Nc1ncn([C@H]2C[C@H](O)[C@@H](CO)O2)c(=O)n1 [decitabine, 5-aza-2′-deoxycytidine]
Response Rate ([1]; High Dose Study, 18 patients): 39% | Treatment Response CR/PR (patients) ([1]; High Dose Study, 18 patients): 7 | Treatment Response No Response (patients) ([1]; High Dose Study, 18 patients): 11 | Response Rate ([1]; Low Dose Study, 23 patients): 35% | Treatment Response CR/PR (patients) ([1]; Low Dose Study, 23 patients): 7 | Treatment Response No Response (patients) ([1]; Low Dose Study, 23 patients): 13 | Response Rate [1, 4]: 34% | Treatment Response CR/PR (patients) [1, 4]: 14 | Treatment Response No Response (patients) [1, 4]: 24 | LINE-1 methylation after treatment with DAC [2]: 17% | Alu methylation after treatment with DAC [3]: 27%
